# From patent US11959086B2, “Dual transit peptides for targeting polypeptides” (BASF AGRO B.V., priority 2016, dated 2024)
# What was measured:
# [1] = system: Arabidopsis plants, construct hemG_tpFNR (SEQ ID NO 117); assay: Tolerance of transgenic T1 Arabidopsis plants to herbicides, greenhouse (Tolerance Factor); format: in vivo, Arabidopsis thaliana
# [2] = system: Arabidopsis plants, construct hemG_tpsAMATU_PPO2 (SEQ ID NO 119); assay: as above; format: in vivo, Arabidopsis thaliana
# [3] = system: Arabidopsis plants, construct hemG_tplAMATU_PPO2 (SEQ ID NO 118); assay: as above; format: in vivo, Arabidopsis thaliana
# [4] = system: Arabidopsis plants, construct hemF_tpFNR (SEQ ID NO 114); assay: as above; format: in vivo, Arabidopsis thaliana
# [5] = system: Arabidopsis plants, construct hemF_tpsAMATU_PPO2 (SEQ ID NO 116); assay: as above; format: in vivo, Arabidopsis thaliana
# [6] = system: Arabidopsis plants, construct hemF_tplAMATU_PPO2 (SEQ ID NO 115); assay: as above; format: in vivo, Arabidopsis thaliana
# [7] = system: Arabidopsis plants, construct RHOMA_PPO_wt_tpFNR (SEQ ID NO 123); assay: as above; format: in vivo, Arabidopsis thaliana
# [8] = system: Arabidopsis plants, construct RHOMA_PPO_wt_tpAMATU_PPO2 (SEQ ID NO 127); assay: as above; format: in vivo, Arabidopsis thaliana
# [9] = system: Arabidopsis plants, construct RHOMA_PPO_F420V_tpFNR (SEQ ID NO 124); assay: as above; format: in vivo, Arabidopsis thaliana
# [10] = system: Arabidopsis plants, construct OPITE_PPO_wt_tpFNR (SEQ ID NO 121); assay: as above; format: in vivo, Arabidopsis thaliana
# [11] = system: Arabidopsis plants, construct CHLSP_PPO_wt_tpFNR (SEQ ID NO 128); assay: as above; format: in vivo, Arabidopsis thaliana
# [12] = system: Wildtype/non-transgenic Arabidopsis thaliana; assay: Herbicide injury evaluation of Arabidopsis plants, greenhouse; format: in vivo; settings: scale 0-100
# [13] = system: transgenic Arabidopsis thaliana, transgene SEQ ID NO 119; assay: as above; format: in vivo; settings: Table 3, scale 0-100
# [14] = system: transgenic Arabidopsis thaliana, transgene SEQ ID NO 117; assay: as above; format: in vivo; settings: Table 3, scale 0-100
# [15] = system: transgenic Arabidopsis thaliana, transgene SEQ ID NO 118; assay: as above; format: in vivo; settings: scale 0-100
# [16] = system: transgenic Arabidopsis thaliana, transgene SEQ ID NO 121; assay: as above; format: in vivo; settings: Table 3, scale 0-100
# [17] = system: transgenic Arabidopsis thaliana, transgene SEQ ID NO 128; assay: as above; format: in vivo; settings: Table 3, scale 0-100
# [18] = system: transgenic Arabidopsis thaliana, transgene SEQ ID NO 120; assay: as above; format: in vivo; settings: Table 4, scale 0-100
smiles,measurement,setting,value
"C#CCN1C(=O)C(F)(F)Oc2cc(F)c(-n3c(=O)n(C)c(=S)n(C)c3=O)cc21 [Trifludimoxazine, 1,5-dimethyl-6-thioxo-3-(2,2,7-trifluoro-3-oxo-4-(prop-2-ynyl)-3,4-dihydro-2H-benzo[b][1,4]oxazin-6-yl)-1,3,5-triazinane-2,4-dione]",Tolerance Factor,[1],4433
same,Tolerance Factor,[2],1
same,Tolerance Factor,[3],9167
same,Tolerance Factor,[4],1
same,Tolerance Factor,[5],1
same,Tolerance Factor,[6],1
same,Tolerance Factor,[7],1
same,Tolerance Factor,[8],1
same,Tolerance Factor,[9],1
same,Tolerance Factor,[10],9
same,Tolerance Factor,[11],1500
same,Herbicide injury evaluation 14 days after herbicide treatment,"[12]; Table 3, 25 g ai/ha + 1% MSO",100
same,Herbicide injury evaluation 14 days after herbicide treatment,"[12]; Table 3, 75 g ai/ha + 1% MSO",100
same,Herbicide injury evaluation 14 days after herbicide treatment,"[12]; Table 3, 150 g ai/ha + 1% MSO",100
same,Herbicide injury evaluation 14 days after herbicide treatment,"[12]; Table 4, 25 g ai/ha + 1% MSO",100
same,Herbicide injury evaluation 14 days after herbicide treatment,"[12]; Table 4, 75 g ai/ha + 1% MSO",100
same,Herbicide injury evaluation 14 days after herbicide treatment,"[12]; Table 4, 150 g ai/ha + 1% MSO",100
same,Herbicide injury evaluation 14 days after herbicide treatment,"[13]; SEQ ID NO 119 A, 25 g ai/ha + 1% MSO",100
same,Herbicide injury evaluation 14 days after herbicide treatment,"[13]; SEQ ID NO 119 A, 75 g ai/ha + 1% MSO",100
same,Herbicide injury evaluation 14 days after herbicide treatment,"[13]; SEQ ID NO 119 A, 150 g ai/ha + 1% MSO",100
same,Herbicide injury evaluation 14 days after herbicide treatment,"[13]; SEQ ID NO 119 B, 25 g ai/ha + 1% MSO",100
same,Herbicide injury evaluation 14 days after herbicide treatment,"[13]; SEQ ID NO 119 B, 75 g ai/ha + 1% MSO",100
same,Herbicide injury evaluation 14 days after herbicide treatment,"[13]; SEQ ID NO 119 B, 150 g ai/ha + 1% MSO",100
same,Herbicide injury evaluation 14 days after herbicide treatment,"[14]; SEQ ID NO 117 C, 25 g ai/ha + 1% MSO",92
same,Herbicide injury evaluation 14 days after herbicide treatment,"[14]; SEQ ID NO 117 C, 75 g ai/ha + 1% MSO",93
same,Herbicide injury evaluation 14 days after herbicide treatment,"[14]; SEQ ID NO 117 C, 150 g ai/ha + 1% MSO",97
same,Herbicide injury evaluation 14 days after herbicide treatment,"[14]; SEQ ID NO 117 I, 25 g ai/ha + 1% MSO",90
same,Herbicide injury evaluation 14 days after herbicide treatment,"[14]; SEQ ID NO 117 I, 75 g ai/ha + 1% MSO",99
same,Herbicide injury evaluation 14 days after herbicide treatment,"[14]; SEQ ID NO 117 I, 150 g ai/ha + 1% MSO",98
same,Herbicide injury evaluation 14 days after herbicide treatment,"[15]; Table 3, SEQ ID NO 118 Q, 25 g ai/ha + 1% MSO",45
same,Herbicide injury evaluation 14 days after herbicide treatment,"[15]; Table 3, SEQ ID NO 118 Q, 75 g ai/ha + 1% MSO",50
same,Herbicide injury evaluation 14 days after herbicide treatment,"[15]; Table 3, SEQ ID NO 118 Q, 150 g ai/ha + 1% MSO",58
same,Herbicide injury evaluation 14 days after herbicide treatment,"[15]; Table 3, SEQ ID NO 118 R, 25 g ai/ha + 1% MSO",20
same,Herbicide injury evaluation 14 days after herbicide treatment,"[15]; Table 3, SEQ ID NO 118 R, 75 g ai/ha + 1% MSO",23
same,Herbicide injury evaluation 14 days after herbicide treatment,"[15]; Table 3, SEQ ID NO 118 R, 150 g ai/ha + 1% MSO",10
same,Herbicide injury evaluation 14 days after herbicide treatment,"[15]; Table 4, SEQ ID NO 118 Q, 25 g ai/ha + 1% MSO",60
same,Herbicide injury evaluation 14 days after herbicide treatment,"[15]; Table 4, SEQ ID NO 118 Q, 75 g ai/ha + 1% MSO",63
same,Herbicide injury evaluation 14 days after herbicide treatment,"[15]; Table 4, SEQ ID NO 118 Q, 150 g ai/ha + 1% MSO",65
same,Herbicide injury evaluation 14 days after herbicide treatment,"[15]; Table 4, SEQ ID NO 118 R, 25 g ai/ha + 1% MSO",18
same,Herbicide injury evaluation 14 days after herbicide treatment,"[15]; Table 4, SEQ ID NO 118 R, 75 g ai/ha + 1% MSO",28
same,Herbicide injury evaluation 14 days after herbicide treatment,"[15]; Table 4, SEQ ID NO 118 R, 150 g ai/ha + 1% MSO",50
same,Herbicide injury evaluation 14 days after herbicide treatment,"[16]; SEQ ID NO 121 G, 25 g ai/ha + 1% MSO",100
same,Herbicide injury evaluation 14 days after herbicide treatment,"[16]; SEQ ID NO 121 G, 75 g ai/ha + 1% MSO",100
same,Herbicide injury evaluation 14 days after herbicide treatment,"[16]; SEQ ID NO 121 G, 150 g ai/ha + 1% MSO",100
same,Herbicide injury evaluation 14 days after herbicide treatment,"[16]; SEQ ID NO 121 H, 25 g ai/ha + 1% MSO",100
same,Herbicide injury evaluation 14 days after herbicide treatment,"[16]; SEQ ID NO 121 H, 75 g ai/ha + 1% MSO",100
same,Herbicide injury evaluation 14 days after herbicide treatment,"[16]; SEQ ID NO 121 H, 150 g ai/ha + 1% MSO",100
same,Herbicide injury evaluation 14 days after herbicide treatment,"[17]; SEQ ID NO 128 D, 25 g ai/ha + 1% MSO",85
same,Herbicide injury evaluation 14 days after herbicide treatment,"[17]; SEQ ID NO 128 D, 75 g ai/ha + 1% MSO",93
same,Herbicide injury evaluation 14 days after herbicide treatment,"[17]; SEQ ID NO 128 D, 150 g ai/ha + 1% MSO",93
same,Herbicide injury evaluation 14 days after herbicide treatment,"[17]; SEQ ID NO 128 E, 25 g ai/ha + 1% MSO",85
same,Herbicide injury evaluation 14 days after herbicide treatment,"[17]; SEQ ID NO 128 E, 75 g ai/ha + 1% MSO",95
same,Herbicide injury evaluation 14 days after herbicide treatment,"[17]; SEQ ID NO 128 E, 150 g ai/ha + 1% MSO",97
same,Herbicide injury evaluation 14 days after herbicide treatment,"[18]; SEQ ID NO 120 J, 25 g ai/ha + 1% MSO",80
same,Herbicide injury evaluation 14 days after herbicide treatment,"[18]; SEQ ID NO 120 J, 75 g ai/ha + 1% MSO",94
same,Herbicide injury evaluation 14 days after herbicide treatment,"[18]; SEQ ID NO 120 J, 150 g ai/ha + 1% MSO",98
same,Herbicide injury evaluation 14 days after herbicide treatment,"[18]; SEQ ID NO 120 M, 25 g ai/ha + 1% MSO",94
same,Herbicide injury evaluation 14 days after herbicide treatment,"[18]; SEQ ID NO 120 M, 75 g ai/ha + 1% MSO",98
same,Herbicide injury evaluation 14 days after herbicide treatment,"[18]; SEQ ID NO 120 M, 150 g ai/ha + 1% MSO",93
